Measurements as given in patent US20040266747A1, “Long chain fatty alcohol substituents in antineoplastic agents” (priority 2001, published 2004).
Converted amounts (≈) assume the structure as drawn.

Key:
[1] = test system: MHEC 5T; assay: Cytotoxic activity, MTT colorimetric cell growth assay; assay type: cell-based; conditions: MHEC5-T; MHEC 5T cells, 72 h cultivation with agent, 37° C.; read-out: Cell line and cyctotoxic acivity IC50, MHEC 5T
Procedure: (§1) Experiments were performed in microtiter plates (2×10^4 cells/cm^2) at 37° C. After a precultivation period of 24 h the antineoplastic agent was added and cultivation was continued for 72 h. Cell growth was determined by a colorimetric assay based on the conversion of 3-(4,5-dimethyl-2-thiazolyl)-2,5-diphenyltetrazolium (MMT) to a blue formazan product using live mitochondria according to Mosmann, J. Immunolog. Methods 1983, 65, 55.

[2] = test system: EA.hy 926; assay: as above; assay type: cell-based; conditions: Homo sapiens; EA.hy 926 cells, 72 h cultivation with agent, 37° C.; read-out: Cell line and cyctotoxic acivity IC50, EA.hy 926
Procedure: as §1

`O=c1[nH]c(=O)n(COCCCCCCCCCCCCO)cc1F` [Compound 3b, 5-Fluoro-1-((12′-hydroxydodecyloxy)-methyl)-uracil] gave an IC50 [1] of 14 µg/mL (≈ 40.6 µM) and an IC50 [2] of 45 µg/mL (≈ 131 µM).
